Results as given in patent US20040224958A1, “Pyridopyrimidinone derivatives for treatment of neurodegenerative disease” (priority 2000, published 2004).
Read-outs that look alike come from different tables or passages of the source.

Columns and labels:
cdk4/D = cdk4/D (Homo sapiens, UniProt P11802); test: Cyclin-Dependent Kinase 4 (cdk4) Assay; format: biochemical; conditions: read-out: cdk4/D IC50
Method: A typical assay, for instance, measures inhibitory activity against the cyclin D dependent kinase 4 enzyme (cdk4/D). […] The cdk4 assay was carried out as follows.
Cyclin-Dependent Kinase 4 (cdk4) Assay
All components except the ATP were added to the wells, and the plate was placed on a plate mixer for 2 minutes. The reaction was started by adding [^32P]ATP and the plate was incubated at 25° C. for 15 minutes. The reaction was terminated by addition of 0.1 mL of 20% trichloroacetic acid (TCA). The plate was kept at 4° C. for at least 1 hour to allow the substrate to precipitate. The wells were then washed five times with 0.2 mL of 10% TCA and ^32P incorporation was determined with a beta plate counter (Wallac Inc., Gaithersburg, Md.).

Cdk5/p25 = Cdk5/p25 (Homo sapiens, UniProt Q00535); test: Cyclin-Dependent Kinase 5 High Throughput Screening (cdk5-HTS) Assay; format: biochemical; conditions: high throughput screen
Method: Cyclin-Dependent Kinase 5 High Throughput Screening (cdk5-HTS) Assay
Enzyme assays for IC50 determinations were performed in 96-Pierce Reacti-Bind™ White Opaque Glutatione Coated Plates (Cat. No. 15240B).
The total volume was 0.100 mL containing a final concentration of 50 mM TRIS (tris[hydroxymethyl]aminomethane) at pH 7.4, 50 mM NaCl, 10 mM MgCl2, 5 mM dithiothreitol, 20 μM ATP containing 16 μCi/mL of Redivue[y33P]ATP (Amersham Pharmacia Biotech Cat. No. AH9968), 1.0 μg/mL Cdk5/p25, 20 μg/mL GST-RbCOOH, and appropriate dilutions of a compound of the present invention. The reaction was started by adding[^33P]ATP, and the plate was shaken for 30 seconds, then incubated at room temperature for 30 minutes. The reaction was terminated by addition of 0.05 mL of 120 mM EDTA. The plate was kept at room temperature for 45 minutes to allow substrate to bind to the walls of the plate. The wells were then washed three times with 0.2 mL of 1×PBS. Once thoroughly dry, 0.140 mL of MicroScint™2O (Packard Bioscience Cat. No. 87-9081) cocktail was added to all wells. The incorporation of ^33P was determined with a beta plate counter (Packard Topcount).

cdk2/cyclinE = cdk2/cyclinE (Homo sapiens, UniProt P24941); test: Cyclin-Dependent Kinase Assay cdk2/cyclinE
cdk2/cyclinA = cdk2/cyclinA (Homo sapiens, UniProt P24941); test: Cyclin-Dependent Kinase Assay cdk2/cyclinA
cdc2/cyclinB = cdc2/cyclinB (Homo sapiens, UniProt P06493); test: Cyclin-Dependent Kinase Assay cdc2/cyclinB
Sequence of cdc2/cyclinB (P06493 whole entry): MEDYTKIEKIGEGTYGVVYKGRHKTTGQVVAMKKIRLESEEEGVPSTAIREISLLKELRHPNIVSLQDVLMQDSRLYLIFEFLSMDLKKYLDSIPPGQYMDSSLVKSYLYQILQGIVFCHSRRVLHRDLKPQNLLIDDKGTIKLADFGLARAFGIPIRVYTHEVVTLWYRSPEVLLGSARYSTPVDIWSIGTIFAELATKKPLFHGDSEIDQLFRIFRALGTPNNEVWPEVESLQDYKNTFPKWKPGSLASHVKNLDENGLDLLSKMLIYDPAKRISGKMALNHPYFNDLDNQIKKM
Sequence of cdc2/cyclinB (P14635 whole entry, further chain): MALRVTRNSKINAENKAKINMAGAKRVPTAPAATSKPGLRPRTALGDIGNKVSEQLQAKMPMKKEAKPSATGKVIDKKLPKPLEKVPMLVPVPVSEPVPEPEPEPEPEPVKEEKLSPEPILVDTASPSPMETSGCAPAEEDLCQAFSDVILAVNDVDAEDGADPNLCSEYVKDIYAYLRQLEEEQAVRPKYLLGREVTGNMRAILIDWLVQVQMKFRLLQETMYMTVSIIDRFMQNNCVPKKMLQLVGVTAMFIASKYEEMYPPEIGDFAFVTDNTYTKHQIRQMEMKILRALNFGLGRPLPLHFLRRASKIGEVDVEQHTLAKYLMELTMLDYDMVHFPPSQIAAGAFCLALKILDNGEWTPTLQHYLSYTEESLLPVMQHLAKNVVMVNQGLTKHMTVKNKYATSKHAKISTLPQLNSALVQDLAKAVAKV

Sequence of cdk4/D (P11802 whole entry): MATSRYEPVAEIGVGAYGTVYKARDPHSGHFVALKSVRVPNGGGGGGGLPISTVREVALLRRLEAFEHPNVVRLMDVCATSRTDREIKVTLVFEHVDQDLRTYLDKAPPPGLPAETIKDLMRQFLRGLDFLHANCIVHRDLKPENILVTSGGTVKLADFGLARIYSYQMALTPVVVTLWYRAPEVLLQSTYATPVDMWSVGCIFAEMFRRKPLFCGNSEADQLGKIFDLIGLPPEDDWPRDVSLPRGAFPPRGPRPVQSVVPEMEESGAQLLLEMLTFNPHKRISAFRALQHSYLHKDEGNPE
Sequence of cdk4/D (P24385 whole entry, further chain): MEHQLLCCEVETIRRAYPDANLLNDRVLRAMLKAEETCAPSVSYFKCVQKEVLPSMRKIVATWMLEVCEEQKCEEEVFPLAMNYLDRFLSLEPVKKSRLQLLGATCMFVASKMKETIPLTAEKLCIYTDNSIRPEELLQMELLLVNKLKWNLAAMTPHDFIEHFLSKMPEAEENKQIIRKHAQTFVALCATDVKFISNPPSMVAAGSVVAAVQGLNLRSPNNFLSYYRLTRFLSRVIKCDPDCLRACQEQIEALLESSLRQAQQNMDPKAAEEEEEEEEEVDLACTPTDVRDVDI

Compound	IC50 (cdk4/D) [nM]	IC50 (Cdk5/p25) [nM]	IC50 (cdk2/cyclinE; cdk2/E IC50) [nM]	IC50 (cdk2/cyclinA; cdk2/A IC50) [nM]	IC50 (cdc2/cyclinB) [nM]	IC50 (cdk2/cyclinE; read-out: cdk2/E IC50) [nM]	IC50 (cdk2/cyclinA; read-out: cdk2/A IC50) [nM]	IC50 (cdc2/cyclinB; read-out: cdk1/B IC50) [nM]
O=c1ccc2cnc(Nc3ccc4[nH]c5ccccc5c4c3)nc2n1CC1CC1 [Example 582, 2-(9H-Carbazol-3-ylamino)-8-cyclopropylmethyl-8H-pyrido[2,3-d]pyrimidin-7-one]	660	190	250	440	280	–	–	–
Cc1cc(Nc2ncc3ccc(=O)n(C(C)C)c3n2)ccc1Br [Example 442, 2-(4-Bromo-3-methyl-phenylamino)-8-isopropyl-8H-pyrido[2,3-d]pyrimidin-7-one]	3600	440	3600	1700	1900	–	–	–
CCCn1c(=O)ccc2cnc(Nc3ccc(F)cc3)nc21 [Example 332, 2-(4-Fluoro-phenylamino)-8-propyl-8H-pyrido[2,3-d]pyrimidin-7-one]	2050	590	417	1310	1050	–	–	–
CCn1c(=O)ccc2cnc(Nc3ccc(F)c(F)c3)nc21 [Example 301, 2-(3,4-Difluoro-phenylamino)-8-ethyl-8H-pyrido[2,3-d]pyrimidin-7-one]	140	120	320	830	600	–	–	–
CCn1c(=O)ccc2cnc(Nc3cccc(C(F)(F)F)c3)nc21 [Example 305, 8-Ethyl-2-(3-trifluoromethyl-phenylamino)-8H-pyrido[2,3-d]pyrimidin-7-one]	–	240	670	1100	550	–	–	–
O=c1ccc2cnc(Nc3cc(Cl)c(O)c(Cl)c3)nc2n1CC(F)(F)F [Example 598, 2-(3,5-Dichloro-4-hydroxy-phenylamino)-8-(2,2,2-trifluoro-ethyl)-8H-pyrido[2,3-d]pyrimidin-7-one]	–	525	523	970	455	–	–	–
CCCn1c(=O)ccc2cnc(Nc3ccc(F)c(F)c3)nc21 [Example 343, 2-(3,4-Difluoro-phenylamino)-8-propyl-8H-pyrido[2,3-d]pyrimidin-7-one]	–	110	120	290	280	–	–	–
CC(C)n1c(=O)ccc2cnc(Nc3ccc(C#N)c(C#N)c3)nc21 [Example 423, 4-(8-Isopropyl-7-oxo-7,8-dihydro-pyrido[2,3-d]pyrimidin-2-ylamino)-phthalonitrile]	–	160	1100	2600	1800	–	–	–
CCCn1c(=O)ccc2cnc(Nc3cc(F)cc(F)c3)nc21 [Example 349, 2-(3,5-Difluoro-phenylamino)-8-propyl-8H-pyrido[2,3-d]pyrimidin-7-one]	–	200	530	1100	880	–	–	–
CCn1c(=O)ccc2cnc(Nc3cc(F)cc(F)c3)nc21 [Example 303, 2-(3,5-Difluoro-phenylamino)-8-ethyl-8H-pyrido[2,3-d]pyrimidin-7-one]	–	470	840	1200	930	–	–	–
CCCCn1c(=O)ccc2cnc(Nc3c(F)cc(F)cc3F)nc21 [Example 366, 8-Butyl-2-(2,4,6-trifluoro-phenylamino)-8H-pyrido[2,3-d]pyrimidin-7-one]	–	699	255	882	1320	–	–	–
O=c1ccc2cnc(Nc3ccc(Br)c(C(F)(F)F)c3)nc2n1CC1CC1 [Example 589, 2-(4-Bromo-3-trifluoromethyl-phenylamino)-8-cyclopropylmethyl-8H-pyrido[2,3-d]pyrimidin-7-one]	–	570	190	710	1300	–	–	–
CCCn1c(=O)ccc2cnc(Nc3cccc(NC(C)=O)c3)nc21 [Example 353, N-[3-(7-Oxo-8-propyl-7,8-dihydro-pyrido[2,3-d]pyrimidin-2-ylamino)-phenyl]-acetamide]	–	230	320	460	710	–	–	–
CCCCn1c(=O)ccc2cnc(Nc3cc(OC)c(OC)c(OC)c3)nc21 [Example 389, 8-Butyl-2-(3,4,5-trimethoxy-phenylamino)-8H-pyrido[2,3-d]pyrimidin-7-one]	–	200	320	870	450	–	–	–
CCCn1c(=O)ccc2cnc(Nc3ccc(O)c(CN4CCOCC4)c3)nc21 [Example 355, 2-(4-Hydroxy-3-morpholin-4-ylmethyl-phenylamino)-8-propyl-8H-pyrido[2,3-d]pyrimidin-7-one]	–	300	680	1100	500	–	–	–
Cc1ccc(Nc2ncc3ccc(=O)n(C(C)C)c3n2)cc1NS(C)(=O)=O [Example 439, N-[5-(8-Isopropyl-7-oxo-7,8-dihydro-pyrido[2,3-d]pyrimidin-2-ylamino)-2-methyl-phenyl]-methanesulfonamide]	310	120	–	630	400	–	–	–
CCCn1c(=O)ccc2cnc(Nc3ccc(Cl)c(C(F)(F)F)c3)nc21 [Example 312, 2-(4-Chloro-3-trifluoromethyl-phenylamino)-8-propyl-8H-pyrido[2,3-d]pyrimidin-7-one]	–	112	–	–	–	330	2670	268

Stronger by IC50 (Cdk5/p25), values ahead:

IC50 (cdk4/D) [nM]	IC50 (Cdk5/p25) [nM]	IC50 (cdk2/cyclinE; cdk2/E IC50) [nM]	IC50 (cdk2/cyclinA; cdk2/A IC50) [nM]	IC50 (cdc2/cyclinB) [nM]	Compound	IC50 (cdk2/cyclinE; read-out: cdk2/E IC50) [nM]	IC50 (cdk2/cyclinA; read-out: cdk2/A IC50) [nM]	IC50 (cdc2/cyclinB; read-out: cdk1/B IC50) [nM]
–	81	240	760	280	CCC(CC)n1c(=O)ccc2cnc(Nc3cc(OC)c(OC)c(OC)c3)nc21 [Example 501, 8-(1-Ethyl-propyl)-2-(3,4,5-trimethoxy-phenylamino)-8H-pyrido[2,3-d]pyrimidin-7-one]	–	–	–
430	69.1	289	1280	216	CCCn1c(=O)ccc2cnc(Nc3ccc(C)c(C)c3)nc21 [Example 318, 2-(3,4-Dimethyl-phenylamino)-8-propyl-8H-pyrido[2,3-d]pyrimidin-7-one]	–	–	–
220	50	160	290	140	CCC(CC)n1c(=O)ccc2cnc(Nc3ccc(Cl)c(Cl)c3)nc21 [Example 511, 2-(3,4-Dichloro-phenylamino)-8-(1-ethyl-propyl)-8H-pyrido[2,3-d]pyrimidin-7-one]	–	–	–
51	50	100	74	170	N#Cc1ccc(Nc2ncc3ccc(=O)n(C4CCCC4)c3n2)cc1 [Example 531, 4-(8-Cyclopentyl-7-oxo-7,8-dihydro-pyrido[2,3-d]pyrimidin-2-ylamino)-benzonitrile]	–	–	–
260	44.4	179	436	151	CCC(CC)n1c(=O)ccc2cnc(Nc3ccc(C)c(C)c3)nc21 [Example 491, 2-(3,4-Dimethyl-phenylamino)-8-(I-ethyl-propyl)-8H-pyrido[2,3-d]pyrimidin-7-one]	–	–	–
–	38	260	370	170	CCC(C)n1c(=O)ccc2cnc(Nc3cccc(C(F)(F)F)c3)nc21 (stereo not drawn) [Example 477, 8-sec-Butyl-2-(3-trifluoromethyl-phenylamino)-8H-pyrido[2,3-d]pyrimidin-7-one]	–	–	–
145	31.5	16.3	54.5	76	O=c1ccc2cnc(Nc3ccc(O)c(Cl)c3)nc2n1CC1CC1 [Example 567, 2-(3-Chloro-4-hydroxy-phenylamino)-8-cyclopropylmethyl-8H-pyrido[2,3-d]pyrimidin-7-one]	–	–	–
–	10	60	78	88	CCC(C)n1c(=O)ccc2cnc(Nc3ccc(OC)c(F)c3)nc21 (stereo not drawn) [Example 462, 8-sec-Butyl-2-(3-fluoro-4-methoxy-phenylamino)-8H-pyrido[2,3-d]pyrimidin-7-one]	–	–	–
19	9	40	16	30	O=C1CSc2ccc(Nc3ncc4ccc(=O)n(C5CCCC5)c4n3)cc2N1 [Example 556, 8-Cyclopentyl-2-(3-oxo-3,4-dihydro-2H-1,4-benzothiazin-6-ylamino)-8H-pyrido[2,3-d]pyrimidin-7-one]	–	–	–
